According to patent publication US20260207615A1, “FLUOROPYRIDOPYRIMIDINE AND FLUOROQUINAZOLINE DERIVATIES AND METHODS OF USE THEREOF” (Frontier Medicines Corporation, priority 2022, published 2026):

biological target: T1, KRAS G12C and cRAF interaction (Homo sapiens, UniProt P01116, C118S/C51S/C80L/G12C); experiment: Inhibition of KRAS G12C and cRAF binding (AlphaScreen); assay type: biochemical; details: KRAS G12C (Cys-light, aa 1-169) preloaded with GMPPNP, cRaf RBD (aa 50-131), 2 hours incubation
T1 construct: truncated version comprising amino acids 1-169
T1 sequence (P01116 1-169 isoform P01116-2 G12C/C51S/C80L/C118S): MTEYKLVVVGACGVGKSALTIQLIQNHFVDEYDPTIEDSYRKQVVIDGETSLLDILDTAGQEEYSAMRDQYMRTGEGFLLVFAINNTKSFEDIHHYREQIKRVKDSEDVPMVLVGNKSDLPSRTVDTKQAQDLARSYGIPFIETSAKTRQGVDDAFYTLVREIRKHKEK
In short: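 Biotin-AviTag KRAS G12C (Cys-light C51S/C80L/C118S, aa 1-169, GMPPNP-loaded; 0.5 nM final)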

| SMILES | IC50 [nM] |
| --- | --- |
| Cc1cc(/C=C/C(=O)N2CCN(c3nc(OC[C@@]45CCCN4C[C@H](F)C5)nc4c(F)c(-c5cccc(Cl)c5C(F)(F)F)ncc34)CC23COC3)nc(C)n1 [Example 69] | 100 to 500 |
| C=CC(=O)N1[C@@H](C)CN(c2nc(OC[C@@]34CCCN3C[C@H](F)C4)nc3c(F)c(-c4cccc5ccc(F)c(F)c45)ncc23)CC12COC2 [Example 70] | ≥ 500 |
| CN(C)C/C=C/C(=O)N1CCN(c2nc(OC[C@@]34CCCN3C[C@H](F)C4)nc3c(F)c(-c4cccc(Cl)c4C(F)(F)F)ncc23)CC12COC2 [Example 71] | 100 to 500 |
| C=CC(=O)N1[C@H](C)CN(c2nc(OC[C@@]34CCCN3C[C@H](F)C4)nc3c(F)c(-c4cccc5cccc(Cl)c45)ncc23)CC12COC2 [Example 72] | 100 to 500 |
| CN1CC[C@@H]1/C=C/C(=O)N1CCN(c2nc(OC[C@@]34CCCN3C[C@H](F)C4)nc3c(F)c(-c4cc(O)cc(Cl)c4C4CC4)ncc23)CC12COC2 [Example 73, (E)-1-(8-(7-(3-chloro-2-cyclopropyl-5-hydroxyphenyl)-8-fluoro-2-(((2R,7aS)-2-fluorotetrahydro-1H-pyrrolizin-7a(5H)-yl)methoxy)pyrido[4,3-d]pyrimidin-4-yl)-2-oxa-5,8-diazaspiro[3.5]nonan-5-yl)-3-((R)-1-methylazetidin-2-yl) prop-2-en-1-one] | < 10 |
| C=CC(=O)N1[C@@H](C)CN(c2nc(OC[C@@]34CCCN3C[C@H](F)C4)nc3c(F)c(-c4cccc5cccc(Cl)c45)ncc23)CC12COC2 [Example 74] | ≥ 500 |
| CN1CC[C@@H]1/C=C/C(=O)N1CCN(c2nc(OC[C@@]34CCCN3C[C@H](F)C4)nc3c(F)c(-c4cccc(Cl)c4C(F)(F)F)ncc23)CC12COC2 [Example 76] | ≥ 500 |
| O=C(/C=C/CN1CC2CC(C1)O2)N1CCN(c2nc(OC[C@@]34CCCN3C[C@H](F)C4)nc3c(F)c(-c4cccc(Cl)c4C(F)(F)F)ncc23)CC12COC2 [Example 77] | 10 to 100 |
| C=C(F)C(=O)N1CCN(c2nc(OC[C@@]34CCCN3C[C@H](F)C4)nc3c(F)c(-c4cc(O)cc(Cl)c4C4CC4)ncc23)CC12COC2 [Example 79] | ≥ 500 |
| C=CC(=O)N1CCN(c2nc(OC[C@@H]3CCCN3C)nc3c(F)c(-c4cccc5cccc(Cl)c45)ncc23)CC12CCOC2 (some centres unmarked) [Example 83] | ≥ 500 |
| Cc1nccc(/C=C/C(=O)N2CCN(c3nc(OC[C@@]45CCCN4C[C@H](F)C5)nc4c(F)c(-c5ccccc5C(F)F)ncc34)CC23COC3)n1 [Example 94] | ≥ 500 |

More lines, now with the values ahead:

| IC50 [nM] | SMILES |
| --- | --- |
| ≥ 500 | C=CC(=O)N1CCN(c2nc(OC[C@@]34CCCN3C[C@H](F)C4)nc3c(F)c(-c4n[nH]c5cccc(Cl)c45)ncc23)CC12COC2 [Example 75] |
| < 10 | C=CC(=O)N1CCN(c2nc(OC[C@@]34CCCN3C[C@H](F)C4)nc3c(F)c(-c4cc(O)cc(Cl)c4C4CC4)c(Cl)cc23)CC12COC2 [Example 78, 1-(8-(6-chloro-7-(3-chloro-2-cyclopropyl-5-hydroxyphenyl)-8-fluoro-2-(((2R,7aS)-2-fluorotetrahydro-1H-pyrrolizin-7a(5H)-yl)methoxy)quinazolin-4-yl)-2-oxa-5,8-diazaspiro[3.5]nonan-5-yl) prop-2-en-1-one] |
| 10 to 100 | C=CC(=O)N1CCN(c2nc(OC[C@@]34CCCN3C[C@H](F)C4)nc3c(F)c(-c4cccc5ccc(F)c(F)c45)ncc23)C[C@@]12CCOC2 [Example 80] |
| ≥ 500 | C=CC(=O)N1CCN(c2nc(OC[C@@]34CCCN3C[C@H](F)C4)nc3c(F)c(-c4cccc5ccc(F)c(F)c45)ncc23)C[C@]12CCOC2 [Example 81] |
| 10 to 100 | C=CC(=O)N1CCN(c2nc(OC[C@@]34CCCN3C[C@H](F)C4)nc3c(F)c(-c4cccc5ccc(F)c(F)c45)ncc23)CC12CCOC2 (some centres unmarked) [Example 82] |
| 100 to 500 | C=CC(=O)N1CCN(c2nc(OC[C@@]34CCCN3C[C@H](F)C4)nc3c(F)c(-c4cccc5cccc(Cl)c45)ncc23)CC12CCOC2 (some centres unmarked) [Example 84] |
| < 10 | C=CC(=O)N1CCN(c2nc(OC[C@@]34CCCN3C[C@H](F)C4)nc3c(F)c(-c4cc(O)cc(Cl)c4C4CC4)ncc23)CC12CCOC2 (stereo partly drawn) [Example 85, 1-(9-(7-(3-chloro-2-cyclopropyl-5-hydroxyphenyl)-8-fluoro-2-(((2R,7aS)-2-fluorotetrahydro-1H-pyrrolizin-7a(5H)-yl)methoxy)pyrido[4,3-d]pyrimidin-4-yl)-2-oxa-6,9-diazaspiro[4.5]decan-6-yl) prop-2-en-1-one] |
| 100 to 500 | C=CC(=O)N1CCN(c2nc(OC[C@@]34CCCN3C[C@H](F)C4)nc3c(F)c(-c4ccc(F)c5sc(N)nc45)c(Cl)cc23)CC12CCOC2 (some centres unmarked) [Example 86] |
| ≥ 500 | C=CC(=O)N1CCN(c2nc(OC[C@@]34CCCN3C[C@H](F)C4)nc3c(F)c(-c4ccc(F)c5sc(N)nc45)c(Cl)cc23)C[C@]12CCOC2 [Example 87] |
| 100 to 500 | C=CC(=O)N1CCN(c2nc(OC[C@@]34CCCN3C[C@H](F)C4)nc3c(F)c(-c4cccc5cccc(Cl)c45)ncc23)C[C@@]12CCOC2 [Example 88] |
| ≥ 500 | C=CC(=O)N1CCN(c2nc(OC[C@@]34CCCN3C[C@H](F)C4)nc3c(F)c(-c4cccc5cccc(Cl)c45)ncc23)C[C@]12CCOC2 [Example 89] |
| 10 to 100 | C=CC(=O)N1CCN(c2nc(OC[C@@]34CCCN3C[C@H](F)C4)nc3c(F)c(-c4ccc(F)c5sc(N)nc45)c(C(F)(F)F)cc23)CC12CCOC2 (some centres unmarked) [Example 90] |
| 100 to 500 | C=CC(=O)N1CCN(c2nc(OC[C@@]34CCCN3C[C@H](F)C4)nc3c(F)c(-c4ccc(F)c5sc(N)nc45)c(Cl)cc23)C[C@@]12CCOC2 [Example 91] |
| 10 to 100 | C=CC(=O)N1CCN(c2nc(OC[C@@]34CCCN3C[C@H](F)C4)nc3c(F)c(-c4ccc(F)c5sc(N)nc45)c(C(F)(F)F)cc23)C[C@]12CCOC2 [Example 92] |
| ≥ 500 | C=CC(=O)N1CCN(c2nc(OC[C@@]34CCCN3C[C@H](F)C4)nc3c(F)c(-c4ccc(F)c5sc(N)nc45)c(C(F)(F)F)cc23)C[C@@]12CCOC2 [Example 93] |
